Earlier results as cited in patent US20050142195A1, “Stable pharmaceutical compositions without a stabilizer” (priority 2002, published 2005).
Like-named read-outs stand apart in the source and are kept apart here.

## CC(NC(C)(C)C)C(=O)c1cccc(Cl)c1.Cl (racemic) [bupropion, (±)-1-(3-chlorophenyl)-2-[(1,1-dimethylethyl)amino]-1-propanone hydrochloride]
In the presence of magnesium stearate or stearic acid
  stability in mixture with lubricant: poor
In the presence of talc
  stability in mixture with lubricant: stable
